pIC50: −log10 of the molar value. Converted amounts (≈) assume the structure as drawn. “Also recorded” adds a separate entry of the source.
What was measured:
[1] = Cell cytotoxicity assay (CellTiter-Glo); details: Chinese hamster, ldlA[mSR-BI] cells
Experimental: It is possible that a compound will cause cells to decrease HDL-mediated DiI uptake due to nonspecific consequences of cellular toxicity, representing a second class of false positive hits. The cells were treated with compounds for 3 hours or 24 hours, and then cell viability was measured using the CellTiter-Glo Assay (Promega), a luciferase-based reagent that measures cellular ATP levels. The compounds were tested at different concentrations to determine IC50 values. […] Data were normalized against DMSO and the positive control (1 μM BLT-1) in Genedata Assay Analyzer.
All available dry powder samples of the remaining, non-quenching compounds were procured from commercial sources and purities were determined. The compounds obtained were then retested in the primary assay and in cytotoxicity assays. We wanted to rule out any compounds that were cytotoxic, especially in the 3-hour time span of the primary DiI-HDL uptake assay. Therefore, compounds were tested in ldl[mSR-BI] cells for cytotoxicity at 3 hours and 24 hours using the CellTiter-Glo assay (Promega) that measures cellular ATP as a marker of cell viability. […] Compounds were screened for inhibition of endocytosis using labeled transferrin, which is known to bind the transferrin receptor, enter cells by clathrin-mediated endocytosis, and move to endosomes before being recycled to the cell surface.

Solubility in PBS = format: physicochemical; details: PBS pH 7.4, 23° C., 1% DMSO
Experimental: (§1) We noticed that the concentration of the probe fluctuated through the course of the assay (data not shown). We believe that this fluctuation is due to the low kinetic solubility of the probe. Thus, we decided to determine the amount of undissolved probe present in the well after it was treated with PBS for a given length of time, relative to the amount of undissolved probe at the start of the assay. The wells were centrifuged and the supernatant was removed after various time points, then acetonitrile was added to dissolve the remaining solid in the wells, and the amount of probe was quantified. […] The stability of the probe was confirmed by measuring stability in human plasma, with >99% remaining after a 5-hour incubation period. […] FIG. 5 summarizes known properties of the probe.

Stability in PBS = format: physicochemical; details: 1% DMSO, over 48 hours
Experimental: as §1

Plasma protein binding = format: in vitro ADME; details: human plasma; read-out: plasma protein binding (PPB), bound (converted)
Stability to GSH = format: physicochemical
Excerpt: Probe 2 (ML279) can potentially act as an electrophile under biological conditions, with its tetrazole alpha to the western amide.

SR-BI [2] = molecular target: T1, SR-BI (Mus musculus, UniProt Q61009); test: Cholesterol efflux assay; format: cell-based, murine; parameters: expressed in transfected cells; host or cells: ldlA[mSR-BI], Chinese hamster ovary (CHO) cells lacking LDL receptor (Krieger Laboratory); details: for inhibition of efflux of free cholesterol (in words): efflux to HDL
T1 sequence (Q61009 1-509): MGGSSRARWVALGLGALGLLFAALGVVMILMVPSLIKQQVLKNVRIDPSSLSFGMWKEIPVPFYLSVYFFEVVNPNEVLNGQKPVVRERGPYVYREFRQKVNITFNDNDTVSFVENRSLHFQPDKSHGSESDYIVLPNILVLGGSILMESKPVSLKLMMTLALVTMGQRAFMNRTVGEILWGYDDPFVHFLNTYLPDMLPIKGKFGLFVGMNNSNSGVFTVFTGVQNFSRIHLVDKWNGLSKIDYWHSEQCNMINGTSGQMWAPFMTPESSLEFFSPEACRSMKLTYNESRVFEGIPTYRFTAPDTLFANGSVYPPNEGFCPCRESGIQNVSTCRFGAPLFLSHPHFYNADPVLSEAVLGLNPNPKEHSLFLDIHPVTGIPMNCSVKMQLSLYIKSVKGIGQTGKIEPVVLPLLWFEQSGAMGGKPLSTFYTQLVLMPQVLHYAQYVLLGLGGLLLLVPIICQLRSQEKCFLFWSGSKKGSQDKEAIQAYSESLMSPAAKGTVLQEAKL
Experimental: SR-BI also mediates bidirectional flux (e.g. efflux) of unesterified or ‘free’ cholesterol (FC) between cells and HDL or other acceptors. This assay is used to determine if the compounds alter the efflux of free cholesterol to HDL.
On Day 0, 50,000 cells per well were plated in 24-well plates. On the following day, the media was removed and [^3H]cholesterol in lipoprotein-deficient media was added. On Day 1, the medium was replaced with Ham's F12 medium supplemented with 10% bovine lipoprotein deficient serum with 1 μCi/ml [1,2-^3H]cholesterol (40-60 Ci/mmol). On Day 3, the cells were washed to remove serum and incubated in Ham's F12 plus 1% fatty acid-free BSA. On Day 4, the cells were washed and pretreated with compounds for 1 hour. Subsequently, the cells were incubated for an additional 2 hours with the same concentrations of small molecules and with unlabeled HDL (final HDL concentration of 100 μg protein/ml). The medium was collected to determine released cholesterol, and the cells were lysed. The amount of [^3H]cholesterol in the medium and cells was determined using liquid scintillation counting. Total cellular [^3H]cholesterol was calculated as the sum of the radioactivity in the efflux medium plus the radioactivity in the cells and was used to calculate the [^3H]cholesterol efflux (percent of total [^3H]cholesterol released into the medium).

SR-BI [3] = molecular target: T1, SR-BI; test: Radioactive HDL uptake assay (wild type SR-BI); format: cell-based, murine; parameters: expressed in transfected cells; host or cells: ldlA[mSR-BI], Chinese hamster ovary (CHO) cells lacking LDL receptor (Krieger Laboratory); details: [3H]cholesteryl ester HDL; read-out: IC50 in nonfluorescent, radiolabeled version of the uptake assay
Excerpt: Radioactive HDL Uptake Assay (Wild Type SR-BI) (SA 8: AID No. 588836)
The goal of this assay was to verify compounds that disrupt the lipid uptake from HDL particles to SR-BI scavenger receptor-expressing cells using an alternative means of labeling HDL-particles and avoiding any type of fluorescence measurement. To measure this binding event, HDL particles are labeled with [^3H]cholesteryl ester and added to mSR-BI expressing cells. Cells take up the radioactive lipids from HDL via SR-BI in 2 to 3 hours. After significant uptake of the lipids from HDL, the radiolabel can be detected by liquid scintillation counting. The level of radioactivity correlates with the amount of HDL lipid uptake. The uptake of lipid from the HDL particles can be inhibited by the compound BLT-1 or when co-treated with an excess of unlabeled HDL. The mSR-BI expressing cells utilized in the assay are a Chinese hamster ovary (CHO) cell line lacking expression of the LDL receptors and overexpressing the scavenger receptor, SR-BI. Inhibitors of SR-BI and HDL lipid uptake will have a reduction in liquid scintillation counts.

## C[C@H](C(=O)NC1CCCC1)N(C(=O)Cn1nnc(-c2ccc3c(c2)OCO3)n1)C1CCCCC1 [ML279, (R)-2-(2-(5-(Benzo[d][1,3]dioxol-5-yl)-2H-tetrazol-2-yl)-N-cyclohexylacetamido)-N-cyclopentylpropanamide]
[1]
  EC50 at 24 h: > 35 µM
  IC50 at 24 h: > 35 µM
Solubility in PBS; listed as CID53393835
  solubility: 27 µM (≈ 12.7 µg/mL)
Solubility in PBS; phosphate buffered saline, 23 °C, pH 7.4, aqueous buffer, kinetic from dmso stock
  solubility: 28 µM (≈ 13.1 µg/mL)
Stability in PBS
  stability in PBS (in words): stable to PBS
Plasma protein binding
  fraction unbound: 0.235
Stability to GSH
  stability to GSH (in words): stable to GSH
SR-BI [2]
  reduction of efflux of free cholesterol from cells: about 50%
  inhibition of efflux of free cholesterol (in words): inhibiting both SR-BI-mediated uptake of cholesteryl ester from HDL and efflux of free cholesterol to HDL particles; also recorded: inhibits efflux of free cholesterol
SR-BI [2]; listed as compound of Formula (II)
  inhibition of efflux of free cholesterol (in words): inhibit efflux of cholesterol
SR-BI [3]
  pIC50: 6.00

Source: patent US9884851B2, “Heterocycle-bisamide inhibitors of scavenger receptor BI” (THE BROAD INSTITUTE, INC., priority 2012, dated 2018)
